Results on 20 molecules are retold here after PubChem BioAssay AID330 (DTP/NCI, 2004).

The experiment concerns P388 leukemia ip, CD2F1 mice, survival T/C. Nature of the experiment: NCI In Vivo Anticancer Drug Screen. Data for tumor model P388 Leukemia (intraperitoneal) in CD2F1 (CDF1) mice. Particulars: endpoint: median survival time, higher = longer survival. Put shortly:
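Mice carrying the transplanted tumor received test compound or vehicle. Survival was recorded in each group, and the value is the treated-group measurement divided by that of the vehicle-treated control group.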

The mark [1] stands for this setting: dose: 60.0 mg/kg/injection, schedule: Q01DX005 (ip), vehicle: saline with Tween-80.
The mark [2] stands for this setting: dose: 240.0 mg/kg/injection, schedule: Q01DX005 (ip), vehicle: saline with Tween-80.
Setting [3] is: dose: 100.0 mg/kg/injection, schedule: Q04DX002 (ip), vehicle: saline with Tween-80.
The mark [4] stands for this setting: dose: 200.0 mg/kg/injection, schedule: Q04DX002 (ip), vehicle: saline with Tween-80.
The mark [5] stands for this setting: dose: 60.0 mg/kg/injection, schedule: Q01DX005 (ip), vehicle: Klucel (hydroxypropylcellulose) (HPC).
Setting [6] is: dose: 120.0 mg/kg/injection, schedule: Q01DX005 (ip), vehicle: Klucel (hydroxypropylcellulose) (HPC).
The mark [7] stands for this setting: dose: 50.0 mg/kg/injection, schedule: Q01DX005 (ip), vehicle: Klucel (hydroxypropylcellulose) (HPC).
Where [8] appears, read: dose: 100.0 mg/kg/injection, schedule: Q01DX005 (ip), vehicle: Klucel (hydroxypropylcellulose) (HPC).
Where [9] appears, read: dose: 200.0 mg/kg/injection, schedule: Q01DX005 (ip), vehicle: Klucel (hydroxypropylcellulose) (HPC).
[10] abbreviates: dose: 50.0 mg/kg/injection, schedule: Q01DX009 (ip), vehicle: saline.
Setting [11] is: dose: 100.0 mg/kg/injection, schedule: Q01DX009 (ip), vehicle: saline.
Where [12] appears, read: dose: 50.0 mg/kg/injection, schedule: Q01DX009 (ip), vehicle: Klucel (hydroxypropylcellulose) (HPC).
Setting [13] is: dose: 100.0 mg/kg/injection, schedule: Q01DX009 (ip), vehicle: Klucel (hydroxypropylcellulose) (HPC).
Setting [14] is: dose: 200.0 mg/kg/injection, schedule: Q01DX009 (ip), vehicle: Klucel (hydroxypropylcellulose) (HPC).

Several values for one entry are separate records, joined by “and”; a condition that tells them apart may be missing. Equal values may be shown once. Toxic doses and inconclusive results are not listed.

For `CN(CCN1C(=O)c2cccc3cccc(c23)C1=O)CCN1C(=O)c2cccc3cccc(c23)C1=O`, the T/C is, setting by setting: (dose: 50.0 mg/kg/injection, schedule: Q01DX005 (ip), vehicle: saline with Tween-80) 95 % of control; under setting [1], 95 % of control; (dose: 100.0 mg/kg/injection, schedule: Q01DX005 (ip), vehicle: saline with Tween-80) 87 % of control; (dose: 200.0 mg/kg/injection, schedule: Q01DX005 (ip), vehicle: saline with Tween-80) 91 % of control; under setting [2], 88 % of control.

Regarding `CC1CC(C)S(=O)CS1` (centres undefined), the T/C is, setting by setting: under setting [3], 98 % of control; under setting [4], 100 % of control.

For the molecule `CC(=O)N(c1ccccc1)[Si](C)(C)C`, the T/C runs as follows: (dose: 100.0 mg/kg/injection, schedule: Q01DX001 (ip), vehicle: saline with Tween-80) 107 % of control; (dose: 200.0 mg/kg/injection, schedule: Q01DX001 (ip), vehicle: saline with Tween-80) 106 % of control; (dose: 400.0 mg/kg/injection, schedule: Q01DX001 (ip), vehicle: saline with Tween-80) 100 % of control.

On to `COC(=O)c1nc(N)nc(C(=O)OC)c1C(=O)c1cccc([N+](=O)[O-])c1`, for which the T/C is, setting by setting: under setting [5], 100 % of control; under setting [6], 101 % of control.

For `CC1(C)N=C(N)N=C(N)N1c1ccc(OCC(=O)Nc2ccc(S(=O)(=O)F)cc2)c(Cl)c1`, the T/C runs as follows: (dose: 50.0 mg/kg/injection, schedule: Q04DX003 (ip), vehicle: saline) 159 % of control; (dose: 100.0 mg/kg/injection, schedule: Q04DX003 (ip), vehicle: saline) 163 % of control and 175 % of control; (dose: 200.0 mg/kg/injection, schedule: Q04DX003 (ip), vehicle: saline) 177 % of control and 190 % of control; (dose: 400.0 mg/kg/injection, schedule: Q04DX003 (ip), vehicle: saline) 115 % of control.

Regarding `O=c1[nH]c(=O)c2nc3cc(Cl)ccc3nc2[nH]1`, the T/C by setting is: under setting [7], 116 % of control; under setting [8], 104 % of control; under setting [9], 99 % of control.

As to `Cc1c(C)c(N(CCCl)CCCl)c(C)c2c1OC(C)(CCCC(C)CCCC(C)CCCC(C)C)CC2` (centres undefined), the T/C is 113 % of control under setting [3]; 113 % of control under setting [4]; 115 % of control (dose: 400.0 mg/kg/injection, schedule: Q04DX002 (ip), vehicle: saline with Tween-80).

On to `COc1ccc(/C=N/NC(N)=S)cc1`, for which the T/C is, setting by setting: (dose: 100.0 mg/kg/injection, schedule: Q01DX009 (ip), vehicle: saline with Tween-80) 109 % of control; (dose: 100.0 mg/kg/injection, schedule: Q04DX003 (ip), vehicle: saline with Tween-80) 100 % of control; (dose: 200.0 mg/kg/injection, schedule: Q01DX009 (ip), vehicle: saline with Tween-80) 100 % of control; (dose: 200.0 mg/kg/injection, schedule: Q04DX003 (ip), vehicle: saline with Tween-80) 113 % of control; (dose: 400.0 mg/kg/injection, schedule: Q01DX009 (ip), vehicle: saline with Tween-80) 109 % of control; (dose: 400.0 mg/kg/injection, schedule: Q04DX003 (ip), vehicle: saline with Tween-80) 109 % of control.

Regarding `CC1CC(O)C(O)(c2ccccc2)CC1C` (centres undefined), the T/C (dose: 100.0 mg/kg/injection, schedule: Q01DX001 (ip), vehicle: Klucel (hydroxypropylcellulose) (HPC)) is 104 % of control; the T/C (dose: 200.0 mg/kg/injection, schedule: Q01DX001 (ip), vehicle: Klucel (hydroxypropylcellulose) (HPC)) is 101 % of control; the T/C (dose: 400.0 mg/kg/injection, schedule: Q01DX001 (ip), vehicle: Klucel (hydroxypropylcellulose) (HPC)) is 99 % of control.

As to `O=C(OC1CCC2(CC1)N=NC1(CCC(OC(=O)c3ccccc3)CC1)S2)c1ccccc1` (centres undefined), the T/C is, setting by setting: under setting [10], 98 % of control; under setting [11], 97 % of control; (dose: 200.0 mg/kg/injection, schedule: Q01DX009 (ip), vehicle: saline) 101 % of control.

`c1ccc(-c2nn[nH]n2)cc1`: the T/C by setting is: (dose: 25.0 mg/kg/injection, schedule: Q01DX009 (ip), vehicle: Klucel (hydroxypropylcellulose) (HPC)) 100 % of control; under setting [12], 100 % of control; under setting [13], 118 % of control; under setting [14], 100 % of control.

As to `CCOC(=O)c1cnc(=O)[nH]c1C(=O)OCC`, the T/C was 91 % of control under setting [7], 100 % of control under setting [8] and 99 % of control under setting [9].

On to `CCN(CC)CCCCNc1ccc(NCCCCN(CC)CC)c2c1C(=O)c1ccccc1C2=O`, for which the T/C (dose: 3.12 mg/kg/injection, schedule: Q01DX009 (ip), vehicle: saline) is 90 % of control; the T/C (dose: 6.25 mg/kg/injection, schedule: Q01DX009 (ip), vehicle: saline) is 90 % of control; the T/C (dose: 12.5 mg/kg/injection, schedule: Q01DX009 (ip), vehicle: saline with Tween-80) is 118 % of control; the T/C (dose: 12.5 mg/kg/injection, schedule: Q01DX009 (ip), vehicle: saline) is 97 % of control; the T/C (dose: 25.0 mg/kg/injection, schedule: Q01DX009 (ip), vehicle: saline with Tween-80) was 115 % of control; the T/C (dose: 50.0 mg/kg/injection, schedule: Q01DX009 (ip), vehicle: saline with Tween-80) is 120 % of control. Besides, the T/C is, setting by setting: under setting [10], 91 % of control; under setting [11], 100 % of control.

For the molecule `CCN(CC)C(=O)Oc1cc(C(=O)N(CC)CC)c(OC(=O)N(CC)CC)cc1C(=O)N(CC)CC`, the T/C is 101 % of control under setting [1]; 92 % of control (dose: 120.0 mg/kg/injection, schedule: Q01DX005 (ip), vehicle: saline with Tween-80); 89 % of control under setting [2].

As for `OC1(c2ccc(F)cc2)CCNCC1`, the T/C was 104 % of control under setting [5] and 92 % of control under setting [6].

For the molecule `N#[N+]c1ccc2c(S(=O)(=O)Nc3ccc(-c4ccc(NS(=O)(=O)c5cccc6c([O-])c([N+]#N)ccc56)cc4)cc3)cccc2c1[O-]`, the T/C by setting is: under setting [12], 102 % of control; under setting [13], 99 % of control; under setting [14], 98 % of control.

In the case of `O=NN(CCCl)C(=O)NCCSSCCNC(=O)N(CCCl)N=O` (tested in a mixture with another compound), the T/C (dose: 12.5 mg/kg/injection, schedule: Q01DX005 (ip), vehicle: Klucel (hydroxypropylcellulose) (HPC)) was 179 % of control and 211 % of control; the T/C (dose: 25.0 mg/kg/injection, schedule: Q01DX005 (ip), vehicle: Klucel (hydroxypropylcellulose) (HPC)) was 224 % of control; the T/C under setting [7] is 120 % of control and 201 % of control.

Regarding `CCN1C(Cl)=NS(=O)(=O)c2ccccc21`, the T/C runs as follows: (dose: 15.0 mg/kg/injection, schedule: Q01DX005 (ip), vehicle: saline with Tween-80) 116 % of control; (dose: 30.0 mg/kg/injection, schedule: Q01DX005 (ip), vehicle: saline with Tween-80) 113 % of control; under setting [1], 100 % of control.

On to `CCOP(=O)(O)SP(=O)(O)OCC.CCOP(=O)(O)SP(=O)(O)OCC.[Co]`, for which the T/C is, setting by setting: (dose: 50.0 mg/kg/injection, schedule: Q01DX001 (ip), vehicle: saline) 105 % of control; (dose: 100.0 mg/kg/injection, schedule: Q01DX001 (ip), vehicle: saline) 104 % of control and 111 % of control.

`CC1CN=C(c2ccc(NC(=O)c3ccc(C(=O)Nc4ccc(C5=NCC(C)N5)cc4)cc3)cc2)N1` (centres undefined): the T/C (dose: 6.25 mg/kg/injection, schedule: Q01DX009 (ip), vehicle: suspension in saline) was 184 % of control; the T/C (dose: 10.0 mg/kg/injection, schedule: Q01DX010 (ip), vehicle: saline) was 209 % of control; the T/C (dose: 12.5 mg/kg/injection, schedule: Q01DX009 (ip), vehicle: suspension in saline) was 245 % of control; the T/C (dose: 15.0 mg/kg/injection, schedule: Q01DX010 (ip), vehicle: saline) was 231 % of control; the T/C (dose: 22.0 mg/kg/injection, schedule: Q01DX010 (ip), vehicle: saline) was 154 % of control; the T/C (dose: 25.0 mg/kg/injection, schedule: Q01DX009 (ip), vehicle: suspension in saline) is 294 % of control. Moreover, the T/C runs as follows: (dose: 33.0 mg/kg/injection, schedule: Q01DX010 (ip), vehicle: saline) 209 % of control; (dose: 50.0 mg/kg/injection, schedule: Q01DX009 (ip), vehicle: suspension in saline) 166 % of control; (dose: 100.0 mg/kg/injection, schedule: Q01DX009 (ip), vehicle: suspension in saline) 154 % of control.
